Assays:
[1] = target: T1, 5-hydroxytryptamine receptor 2C (Homo sapiens, UniProt P28335); assay: Displacement of [N-methyl-3H]LSD from human 5HT2C receptor expressed in HEK293 cells; assay type: cell-based
T1 sequence (P28335 whole entry): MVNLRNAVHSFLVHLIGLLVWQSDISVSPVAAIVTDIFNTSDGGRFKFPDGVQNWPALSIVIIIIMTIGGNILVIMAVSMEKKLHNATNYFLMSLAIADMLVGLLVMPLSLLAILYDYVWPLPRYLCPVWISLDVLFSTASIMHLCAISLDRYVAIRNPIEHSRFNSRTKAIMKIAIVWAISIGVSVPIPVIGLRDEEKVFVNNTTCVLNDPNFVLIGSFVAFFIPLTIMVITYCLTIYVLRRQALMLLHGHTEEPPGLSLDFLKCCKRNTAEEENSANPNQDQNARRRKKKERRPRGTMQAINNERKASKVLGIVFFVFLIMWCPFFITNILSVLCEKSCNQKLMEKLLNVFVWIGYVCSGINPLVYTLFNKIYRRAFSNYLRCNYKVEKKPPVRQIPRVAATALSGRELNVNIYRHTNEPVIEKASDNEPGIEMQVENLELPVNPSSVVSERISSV

[2] = target: T2, 5-hydroxytryptamine receptor 4 (Homo sapiens, UniProt Q13639); assay: Displacement of [N-methyl-3H]GR-113808 from human 5HT4 receptor expressed in HEK293 cells; assay type: cell-based
T2 sequence (Q13639 whole entry): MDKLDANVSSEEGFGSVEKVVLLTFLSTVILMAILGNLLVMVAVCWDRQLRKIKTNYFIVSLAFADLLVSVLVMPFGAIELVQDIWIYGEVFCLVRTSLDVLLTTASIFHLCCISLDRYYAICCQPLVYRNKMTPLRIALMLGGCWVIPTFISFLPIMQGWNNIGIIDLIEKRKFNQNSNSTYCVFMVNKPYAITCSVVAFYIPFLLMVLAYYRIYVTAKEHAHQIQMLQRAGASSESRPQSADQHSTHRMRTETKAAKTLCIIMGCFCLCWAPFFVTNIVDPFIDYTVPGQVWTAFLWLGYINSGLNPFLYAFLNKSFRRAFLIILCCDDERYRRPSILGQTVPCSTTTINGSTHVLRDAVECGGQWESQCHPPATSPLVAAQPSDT

[3] = target: T2, 5-hydroxytryptamine receptor 4; assay: Binding affinity to human 5HT4 receptor expressed in HEK293 cells by saturation binding method; assay type: cell-based
[4] = target: 5-hydroxytryptamine receptor 2A (Homo sapiens, UniProt P28223); assay: biochemical; assay type: cell-based, HEK293
Sequence of 5-hydroxytryptamine receptor 2A (P28223 whole entry): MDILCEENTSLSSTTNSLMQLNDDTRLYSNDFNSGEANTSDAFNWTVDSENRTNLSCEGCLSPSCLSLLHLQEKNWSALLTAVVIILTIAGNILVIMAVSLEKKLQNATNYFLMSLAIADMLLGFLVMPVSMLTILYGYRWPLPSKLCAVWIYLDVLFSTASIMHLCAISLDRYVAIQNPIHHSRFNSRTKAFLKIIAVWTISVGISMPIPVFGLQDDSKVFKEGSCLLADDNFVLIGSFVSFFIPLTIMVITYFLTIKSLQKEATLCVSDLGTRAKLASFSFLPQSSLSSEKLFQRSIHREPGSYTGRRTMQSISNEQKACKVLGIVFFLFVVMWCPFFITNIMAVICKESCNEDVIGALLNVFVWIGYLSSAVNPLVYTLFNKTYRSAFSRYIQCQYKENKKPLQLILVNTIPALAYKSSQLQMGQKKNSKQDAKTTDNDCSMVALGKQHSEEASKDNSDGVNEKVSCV

SMILES | Ki [1] | Ki [2] | Kd [3] | Ki [4]
NC(N)=NCCC[C@@H]1NC(=O)[C@H](Cc2c[nH]c3cc(Br)ccc23)NC1=O | 4630 nM |  |  | 
CCCCCNC(=N)N/N=C/c1c[nH]c2ccc(OC)cc12 [TEGASEROD] |  | 31 nM |  | 
CC[C@@H](CO)NC(=O)[C@@H]1C=C2c3cccc4c3c(cn4C)C[C@H]2N(C)C1 [METHYSERGIDE] | 2.5 nM |  |  | 
[3H]C([3H])([3H])n1cc(C(=O)OCC2CCN(CCNS(C)(=O)=O)CC2)c2ccccc21 |  |  | 15.8 nM | 
N=C(N)NCCC[C@@H]1NC(=O)/C(=C/c2c[nH]c3cc(Br)ccc23)NC1=O [BARETTIN] | 340 nM | 1910 nM |  | 1930 nM
